The values that follow come from US20100310535A1, “METHOD FOR EXPANDING HEMATOPOIETIC STEM CELLS USING HETEROCYCLIC COMPOUND” (Nissan Chemical Industries, Ltd., priority 2007, published 2010).

Each structure is given as a SMILES string.

For one test, the system named is human cord blood-derived CD34^+ cells. Nature of the test: Expansion of CD34^+ cells from human cord blood-derived CD34^+ cells (7-day liquid culture with SCF, flow cytometry). It is filed as cell-based. Conditions: 168 h, 0.3 μg/mL compound, based on the number of CD34^+ cells in the absence of compound, 100 ng/mL SCF, 7 days, read-out: Expansion efficiency. The method, then: Commercially available human cord blood-derived CD34^+ cells (Cambrex Bio Science Walkersville) were plated on a 12-well plate (Corning) (from 5000 to 10000 cells/1 mL/well). As the culture medium, StemSpan SFEM (Stemcell Technologies) containing 100 ng/mL SCF (R&D Systems) was used, and Compounds Nos. 1 to 16 dissolved in dimethyl sulfoxide were added in an amount of 0.1% (v/v) to a final concentration of 0.3 or 1 μg/mL.
After the cells were incubated in liquid culture at 37° C. for 7 days in a CO2 incubator (in an atmosphere containing 5 vol % CO2), the total number of cells was counted by trypan blue assay (Invitrogen) or Flow-Count™ fluorosphere assay (Beckman Coulter). The number of CD34^+ cells was calculated as follows. After the incubation, the cells in the liquid culture was stained with a CD34 antibody (PE, Becton, Dickinson and Company). The stained cells were analyzed with a flow cytometer (Beckman Coulter) to determined the proportion of CD34^+ cells, which was multiplied by the total number of cells to calculate the number of CD34^+ cells.
The expansion efficiencies in the presence of 0.3 μg/mL or 1 μg/mL of compounds based on the number of CD34^+ cells in the absence of them are shown in Table 3 on a scale of A for expansion efficiencies of 3 or greater, B for expansion efficiencies of at least 2 and less than 3, and C for expansion efficiencies of at least 1.5 and less than 2.
Turning to `C/C(=N\NC(=S)N1CCC(C(=O)NCC(=O)O)CC1)c1csc(-c2ccc(Br)cc2)c1O` [compound 16], the fold induction at 0.3 µg/mL is 2 to 3.

For `C/C(=N\NC(=S)N1CCC(C(=O)NCc2ccncc2)CC1)c1csc(-c2ccc(Br)cc2)c1O` [compound 14], the fold induction at 0.3 µg/mL was in the range of 1.5 to 2.

The same test, now with this note: 168 h, 1 μg/mL compound, based on the number of CD34^+ cells in the absence of compound, 100 ng/mL SCF, 7 days, read-out: Expansion efficiency.
For the compound `COC(=O)C1CCN(C(=S)N/N=C(\C)c2csc(-c3ccc(OC)cc3)c2O)CC1` [compound 5], the fold induction at 1 µg/mL is 1.5 to 2.

Regarding `COC(=O)C1CCN(C(=S)N/N=C(\C)c2nn(C)c(-c3ccc(Cl)c(Cl)c3)c2O)CC1` [compound 4], the fold induction at 1 µg/mL lay in the range of 1.5 to 2.

Turning to `C/C(=N\NC(=S)N1CCC(C(=O)O)CC1)c1csc(-c2ccc(Br)cc2)c1O` [compound 8], the fold induction at 1 µg/mL is no less than 3.

In the case of `CCCNC(=O)C1CCN(C(=S)N/N=C(\C)c2nn(C)c(-c3ccc(C(F)(F)F)cc3)c2O)CC1` [compound 9], the fold induction at 1 µg/mL was 2 to 3.

Turning to `C/C(=N\NC(=S)N1CCC(C(=O)O)CC1)c1csc(-c2ccc(OC(F)(F)F)cc2)c1O` [compound 11], the fold induction at 1 µg/mL was no less than 3.

Take `C/C(=N\NC(=S)N1CCC(C(=O)O)CC1)c1csc(-c2ccc(C(F)(F)F)cc2)c1O` [compound 2]: the fold induction at 1 µg/mL is 2 to 3.

Take `C/C(=N\NC(=S)N1CCC(C(=O)O)CC1)c1csc(-c2ccc(Cl)c(Cl)c2)c1O` [compound 1]: the fold induction at 1 µg/mL lay in the range of 2 to 3.

Consider `C/C(=N\NC(=S)N1CCC(C(=O)O)CC1)c1csc(-c2cccc(Cl)c2)c1O` [compound 12], for which the fold induction at 1 µg/mL lay within 2 to 3.

Regarding `C/C(=N\NC(=S)N1CCC(C(=O)O)CC1)c1csc(-c2ccc(C(C)(C)C)cc2)c1O` [compound 7], the fold induction at 1 µg/mL is no less than 3.

For the compound `C/C(=N\NC(=S)N1CCC(C(=O)O)CC1)c1nn(C)c(-c2ccc(C(F)(F)F)cc2)c1O` [compound 3], the fold induction at 1 µg/mL was in the range of 1.5 to 2.

For the compound `C/C(=N\NC(=S)N1CCC(C(=O)O)CC1)c1csc(-c2ccc(C)c(C)c2)c1O` [compound 10], the fold induction at 1 µg/mL is no less than 3.

Take `C/C(=N\NC(=S)N1CCC(C(=O)O)CC1)c1csc(-c2ccc(Cl)cc2)c1O` [compound 13]: the fold induction at 1 µg/mL was no less than 3.

On to `COc1ccc(-c2scc(/C(C)=N/NC(=S)N3CCC(C(=O)O)CC3)c2O)cc1` [compound 6], for which the fold induction at 1 µg/mL is no less than 3.
